# Experimental data reported in patent US20150037825A1 (priority 2011, published 2015).
# Where a name gives a salt, the structure may show the parent alone. Marks after values point to notes of the source that are not given here.
# Tested on: plasma metabolites
# Settings: rat, in vivo
compound,measurement,value
Nc1ccccc1Cl [2-Chloroaniline],"3,4-Dihydroxyphenylalanine (DOPA), ratio versus control",0.76
same,"3,4-Dihydroxyphenylglycol (DOPEG), ratio versus control",0.87
same,"3-Hydroxyindole, ratio versus control",1.40
same,"3-Indoxylsulfate, ratio versus control",1.68
same,"3-Methoxytyrosine, ratio versus control",1.48
same,"Cytosine, ratio versus control",1.41
same,"Ketoleucine, ratio versus control",0.60
same,"Ribal, ratio versus control",1.24
same,"Serotonin (5-HT), ratio versus control",2.64
same,biomarkers of table 12a and/or 12b (early indicators of blood anemia) altered as early as,7 days
Nc1ccc(Cl)c([N+](=O)[O-])c1 [4-Chloro-3 nitroaniline],"3-Hydroxyindole, ratio versus control",1.25
same,"3-Indoxylsulfate, ratio versus control",1.34
same,"3-Methoxytyrosine, ratio versus control",1.90
same,"Cytosine, ratio versus control",1.75
same,"Ribal, ratio versus control",1.89
same,"Serotonin (5-HT), ratio versus control",9.50
Nc1ccc(Cl)c([N+](=O)[O-])c1 [4-Chloro-3-nitroaniline],"3,4-Dihydroxyphenylalanine (DOPA), ratio versus control",0.93
same,"3,4-Dihydroxyphenylglycol (DOPEG), ratio versus control",0.53
same,"Ketoleucine, ratio versus control",0.61
same,biomarkers of table 12a and/or 12b (early indicators of blood anemia) altered as early as,7 days
COc1cccc2c1C(=O)c1c(O)c3c(c(O)c1C2=O)C[C@@](O)(C(=O)CO)C[C@@H]3O[C@H]1C[C@H](N)[C@H](O)[C@H](C)O1 [Adriamycin hydrochloride],"3-Hydroxybutyrate, plasma, ratio vs control",0.66 *
same,"18-Hydroxy-11-deoxycorticosterone, plasma, ratio vs control",0.44 *
same,"Choline plasmalogen No 02, plasma, ratio vs control",1.18 *
same,"Citrate, plasma, ratio vs control",0.86
same,"Ketoleucine, plasma, ratio vs control",0.69 *
same,"Lignoceric acid (C24:0), plasma, ratio vs control",2.04 *
same,"Taurine, plasma, ratio vs control",1.39 *
same,"Tricosanoic acid (C23:0), plasma, ratio vs control",2.14 *
Nc1ccccc1 [Aniline],"3,4-Dihydroxyphenylalanine (DOPA), ratio versus control",0.81
same,"3,4-Dihydroxyphenylglycol (DOPEG), ratio versus control",0.84
same,"3-Hydroxyindole, ratio versus control",1.61
same,"3-Indoxylsulfate, ratio versus control",1.64
same,"3-Methoxytyrosine, ratio versus control",1.35
same,"Cytosine, ratio versus control",1.62
same,"Ketoleucine, ratio versus control",0.94
same,"Ribal, ratio versus control",1.66
same,biomarkers of table 12a and/or 12b (early indicators of blood anemia) altered as early as,7 days
N.N.O=C([O-])C1(C(=O)[O-])CCC1.[Pt+2] [Carboplatin],"3-Hydroxybutyrate, plasma, ratio vs control",0.74 *
same,"4-Hydroxyphenylpyruvate, plasma, ratio vs control",0.39 *
same,"14-Methylhexadecanoic acid, plasma, ratio vs control",0.72 *
same,"21-Hydroxyprogesterone (11-Deoxycorticosterone), plasma, ratio vs control",0.09 *
same,"Ascorbic acid, plasma, ratio vs control",0.84 *
same,"Choline plasmalogen (C18, C20:4), plasma, ratio vs control",0.89 *
same,"Corticosterone, plasma, ratio vs control",0.31 *
same,"Fructose-6-phosphate, plasma, ratio vs control",1.74 *
same,"Glucose-6-phosphate, plasma, ratio vs control",2.2 *
same,"Histidine, plasma, ratio vs control",1.17 *
same,"Indole-3-lactic acid, plasma, ratio vs control",1.13 *
same,"Ornithine, plasma, ratio vs control",1.11 *
same,"Phenylalanine, plasma, ratio vs control",1.2 *
same,"Phosphate (inorganic and organic phosphates), plasma, ratio vs control",1.57 *
same,"Phosphatidylcholine (C18:0, C18:2), plasma, ratio vs control",1.22 *
same,"Progesterone, plasma, ratio vs control",0.49*
same,"Taurine, plasma, ratio vs control",1.47 *
same,"Threonic acid, plasma, ratio vs control",1.51 *
same,"Tryptophan, plasma, ratio vs control",1.17 *
O=P1(N(CCCl)CCCl)NCCCO1 (stereo not drawn) [Cyclophosphamide monohydrate],"3-Hydroxybutyrate, plasma, ratio vs control",0.75 *
same,"18-Hydroxy-11-deoxycorticosterone, plasma, ratio vs control",0.16 *
same,"Choline plasmalogen No 02, plasma, ratio vs control",1.13 *
same,"Citrate, plasma, ratio vs control",0.78 *
same,"Isoleucine, plasma, ratio vs control",1.23 *
same,"Ketoleucine, plasma, ratio vs control",0.88 *
same,"Leucine, plasma, ratio vs control",1.33 *
same,"Lignoceric acid (C24:0), plasma, ratio vs control",1.29 *
same,"Taurine, plasma, ratio vs control",1.21 *
same,"Tricosanoic acid (C23:0), plasma, ratio vs control",1.44 *
same,"Valine, plasma, ratio vs control",1.25 *
Nc1ccn([C@@H]2O[C@H](CO)[C@@H](O)[C@@H]2O)c(=O)n1 [Cytarabin],"3-Hydroxybutyrate, plasma, ratio vs control",0.53 *
same,"18-Hydroxy-11-deoxycorticosterone, plasma, ratio vs control",0.13 *
same,"Choline plasmalogen No 02, plasma, ratio vs control",1.11 *
same,"Citrate, plasma, ratio vs control",0.81 *
same,"Isoleucine, plasma, ratio vs control",1.1 *
same,"Ketoleucine, plasma, ratio vs control",0.75 *
same,"Leucine, plasma, ratio vs control",1.12 *
same,"Lignoceric acid (C24:0), plasma, ratio vs control",1.31 *
same,"Taurine, plasma, ratio vs control",1.27 *
same,"Tricosanoic acid (C23:0), plasma, ratio vs control",1.3
same,"Valine, plasma, ratio vs control",1.1 *
C[C@H]1C[C@@H]2[C@H]([C@@H](O)C[C@@]3(C)[C@H]2CC[C@]3(O)C(=O)CO)[C@@]2(C)C=CC(=O)C=C12 [Methylprednisolone],"18-Hydroxy-11-deoxycorticosterone, ratio versus control",0.15 *
same,"Aspartate, ratio versus control",1.37 *
same,"Cholesterolester No 01, ratio versus control",1.08 *
same,"Glutamate, ratio versus control",1.11 *
same,"Glycerol-3-phosphate, polar fraction, ratio versus control",1.4 *
same,"Ketoleucine, ratio versus control",0.75 *
same,"Pyruvate, ratio versus control",0.65 *
C=CC[C@@H]1/C=C(\C)C[C@H](C)C[C@H](OC)[C@H]2O[C@@](O)(C(=O)C(=O)N3CCCC[C@H]3C(=O)O[C@H](/C(C)=C/[C@@H]3CC[C@@H](O)[C@H](OC)C3)[C@H](C)[C@@H](O)CC1=O)[C@H](C)C[C@@H]2OC [Tacrolimus],"18-Hydroxy-11-deoxycorticosterone, ratio versus control",0.48 *
same,"Aspartate, ratio versus control",1.42 *
same,"Cholesterolester No 01, ratio versus control",1.05 *
same,"Glutamate, ratio versus control",1.29 *
same,"Glycerol-3-phosphate, polar fraction, ratio versus control",1.54 *
same,"Ketoleucine, ratio versus control",0.85 *
same,"Pyruvate, ratio versus control",0.77 *
Lead acetate trihydrate,"Cholesterolester No 01, plasma, ratio vs control",1.28 *
same,"Glucose, plasma, ratio vs control",0.91
same,"Phosphatidylcholine (C16:0, C18:2), plasma, ratio vs control",1.06 *
same,"Sphingomyelin (d18:2, C18:0), plasma, ratio vs control",1.09 *
same,"TAG (C18:1, C18:2), plasma, ratio vs control",1.33 *
same,"TAG (C18:2, C18:2), plasma, ratio vs control",1.48 *
same,"TAG No 01, plasma, ratio vs control",1.5 *
